Laboratory results as given in patent US20250186555A1, “FORMULATIONS COMPRISING ACID-NEUTRALIZING POLYMER FOR ORAL ADMINISTRATION OF GLUCAGON-LIKE PEPTIDE-2” (Entera Bio Ltd., priority 2022, published 2025).
Read-outs that look alike come from different tables or passages of the source.

Assays:
[1] = cited from earlier work
[2] = compared with endogenous GLP-2; cited from earlier work
[3] = Oral teduglutide/SNAC/SSG mini-tablets in rats, plasma teduglutide by ELISA; type: in vivo, Sprague-Dawley rats; conditions: oral mini-tablets: 0.7 mg teduglutide (2.34 mg/Kg), 15 mg SNAC, 5.33 mg SSG, n=7
Experimental: In an exemplary in vivo rat model, the effect of SNAC, as an exemplary absorption enhancer, and SSG, as an exemplary alkaline polymer, on the oral bioavailability of teduglutide was tested.
A formulation was prepared with 0.7 mg teduglutide (2.34 mg/Kg), 15 mg SNAC, 0.2 mg stearate and 5.33 mg SSG. All substances were in a dry powder form and mixed geometrically. Afterwards, mini-tablets were prepared from the mixes using a 2 mm punch and die set at 1 ton/cm^2.
The study was conducted in 7 male Sprague-Dawley (SD) rats weighing about 299 grams (290-320 grams). Animals were deprived of food 12-15 hours prior to administration. Water supply was removed one hour before administration and returned one hour post-administration. The mini-tablets were administered by a flexible intragastric gavage with a tip adapted for solid dosage forms administration, without the aid of water. Blood samples were thereafter collected at pre-determined time points, the plasma was separated, and the plasma level of teduglutide was quantified by an ELISA kit for the detection of endogenous GLP-2 in plasma (Abcam, Cat. No. ab222863) according to manufacturer's method Version 7, upon required modifications.

[4] = teduglutide without the formulation; cited from earlier work
[5] = pH upon addition of test substance to 0.1 M HCl solution (pH 1.2), simulated gastric fluid, pH meter; type: physicochemical
Experimental: Test substances were dissolved in various volumes of 0.1 M HCl solution (pH 1.2) at concentrations of 1, 2, 4, 10, 20, 50, 100 and 150 mg/ml. The solution pH was determined using an MP-103 pH-meter (MRC, Israel) equipped with ELC-10-00 electrode (MRC, Israel) or with a thin electrode HI1083 (HANNA instruments Inc.), shortly after dissolution and up to 26 hours later in order to ensure that the pH remained stable. The highest pH value obtained during the experimental time period was recorded in order to compare the acid-neutralizing capacity of each substance.
SNAC and the basic polymers sodium alginate, sodium carboxymethylcellulose in non-crosslinked (Na-CMC) and crosslinked (croscarmellose sodium, CCS) forms, and sodium starch glycolate (SSG) were dissolved in various volumes of 0.1 M HCl solution (pH 1.2) at concentrations of 1, 2, 4, 10, 20, 50, 100 and 150 mg/ml, and the solution pH was determined using an MP-103 pH-meter (MRC, Israel) equipped with ELC-10-00 electrode (MRC, Israel), as described in the Materials and Methods section hereinabove.
In order to obtain a beneficial rise in pH with a reduced loss of the active form of the absorption enhancer, the effect of various concentrations of different polymers containing carboxylate groups (sodium alginate, sodium starch glycolate, sodium carboxymethylcellulose, and croscarmellose sodium) on pH upon addition to a 0.1 M HCl solution (pH 1.2) was also evaluated. FIG. 2A presents pH values determined using an MP-103 pH-meter (MRC, Israel) equipped with ELC-10-00 electrode (MRC, Israel) and FIG. 2B presents pH values determined using an MP-103 pH-meter (MRC, Israel) equipped with a thin electrode HI1083 (HANNA instruments Inc.).

GLP-2: Human glucagon-like peptide-2, a 33-amino acid polypeptide produced by intestinal endocrine L cells
half-life in humans ([1]; human, in vivo): about 7 minutes

CC[C@H](C)[C@H](NC(=O)[C@H](Cc1ccccc1)NC(=O)[C@H](CC(=O)O)NC(=O)[C@H](CCCNC(=N)N)NC(=O)[C@H](C)NC(=O)[C@H](C)NC(=O)[C@H](CC(C)C)NC(=O)[C@H](CC(N)=O)NC(=O)[C@H](CC(=O)O)NC(=O)[C@H](CC(C)C)NC(=O)[C@@H](NC(=O)[C@@H](NC(=O)[C@H](CC(N)=O)NC(=O)[C@H](CCSC)NC(=O)[C@H](CCC(=O)O)NC(=O)[C@H](CC(=O)O)NC(=O)[C@H](CO)NC(=O)[C@H](Cc1ccccc1)NC(=O)[C@H](CO)NC(=O)CNC(=O)[C@H](CC(=O)O)NC(=O)CNC(=O)[C@@H](N)Cc1c[nH]cn1)[C@@H](C)O)[C@@H](C)CC)C(=O)N[C@@H](CC(N)=O)C(=O)N[C@@H](Cc1c[nH]c2ccccc12)C(=O)N[C@@H](CC(C)C)C(=O)N[C@H](C(=O)N[C@@H](CCC(N)=O)C(=O)N[C@H](C(=O)N[C@@H](CCCCN)C(=O)N[C@H](C(=O)N[C@H](C(=O)N[C@@H](CC(=O)O)C(=O)O)[C@@H](C)O)[C@@H](C)CC)[C@@H](C)O)[C@@H](C)CC [teduglutide]
stability to metabolic degradation [2]: significantly higher stability to metabolic degradation than the endogenous glucagon like peptide 2 (GLP-2) | half-life in humans ([1]; humans): about two hours | teduglutide plasma concentrations as a function of time [3]: enable oral delivery of teduglutide | oral (PO) bioavailability [4]: negligible

O=C(O)CCCCCCCNC(=O)c1ccccc1O [SNAC, sodium 8-N-(2-hydroxybenzoyl)aminocaprylate]
pH 5 minutes after dissolution ([5]; 10 mg/ml SNAC added to HCl solution (pH 1.2)): about 1.5 | pH 5 minutes after dissolution ([5]; 20 mg/ml SNAC added to HCl solution (pH 1.2)): 6.5 | pH 5 minutes after dissolution ([5]; 100 mg/ml SNAC added to HCl solution (pH 1.2)): about 7.5
